According to patent US12577217B2, “15-PGDH inhibitor” (KYORIN Pharmaceutical Co., Ltd., priority 2019, dated 2026):

Biological target: T1, recombinant human 15-PGDH (Homo sapiens, UniProt P15428)
T1 construct: purchased R&D Systems
T1 sequence (P15428 1-266): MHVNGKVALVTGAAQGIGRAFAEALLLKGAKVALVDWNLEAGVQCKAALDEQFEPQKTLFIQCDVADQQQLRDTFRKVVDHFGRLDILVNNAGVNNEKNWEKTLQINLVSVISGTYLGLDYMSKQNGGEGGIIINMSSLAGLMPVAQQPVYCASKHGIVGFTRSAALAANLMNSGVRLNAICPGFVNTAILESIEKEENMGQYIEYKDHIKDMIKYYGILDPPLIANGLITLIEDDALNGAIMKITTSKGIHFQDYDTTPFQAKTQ
Test: 15-PGDH enzyme inhibition test
Type: biochemical
Settings: 4 nM recombinant human 15-PGDH, 30 μM PGE2, 1 mM NAD+, 60 minutes after starting the reaction; read-out: IC50 Value
Procedure: 15-PGDH Enzyme Inhibition Test
A test compound and 4 nM recombinant human 15-PGDH (R&D Systems) were added, in 50 mM Tris-HCl (pH 8.0) containing 0.01% TWEEN 20 (Sigma) and 0.01% bovine gamma globulin (Sigma), to a 384-well Flat Bottom Black plate (Corning, 3820), and the resultant was allowed to stand still at room temperature for 12 minutes, and 30 μM PGE2 (Cayman Chemical) and 1 mM NAD+ (Sigma) were added thereto to start the reaction. 60 minutes after starting the reaction, measurement was performed using Synergy 2 (BioTeck) at an excitation wavelength of 340 nm and a fluorescence wavelength of 440 nm. Assuming that a fluorescence signal obtained with an assay buffer added instead of the test compound and NAD+ was 100% and that a signal obtained with NAD+ added was 0%, a concentration corresponding to 50% inhibition plotted on a concentration-reaction curve of the test compound was defined as an IC50 value. Incidentally, in the following tables, an IC50 value smaller than 10 nM was shown as +++, an IC50 value equal to or larger than 10 nM and smaller than 100 nM was shown as ++, and an IC50 value equal to or larger than 100 nM was shown as +.

Structure (SMILES)	IC50 [nM]
CN1Cc2cc(N3CCOc4cc(C(=O)C5CCC(F)(F)CC5)cnc43)ccc2C1=O [Example 1-133]	< 10
COc1cc(N2CCOc3cc(C(=O)N4CC=CCC4)ccc32)ccc1C(N)=O [Example 5-1, 2-Methoxy-4-(7-(1,2,3,6-tetrahydropyridine-1-carbonyl)-2,3-dihydro-4H-benzo[b][1,4]oxazin-4-yl)benzamide]	< 10
CN1Cc2cc(N3CCOc4cc(C(=O)N5CCC(F)CC5)cnc43)ccc2C1=O [Example 8-202]	< 10
COCCNC(=O)c1ccc(N2CCCc3cc(C(=O)N4CCCCC4)cnc32)cc1F [Example 1-60]	< 10
Cn1ccc2cc(N3CCOc4cc(C(=O)N5CCC(F)(F)CC5)cnc43)ccc2c1=O [Example 1-267]	< 10
CCn1nc2cc(N3CCCc4cc(C(=O)N5CCC[C@@H](F)C5)cnc43)ccn2c1=O [Example 8-162]	< 10
CCN1Cc2cc(N3CCCc4cc(C(=O)N5CCC[C@H](C)C5)cnc43)ccc2C1=O [Example 8-90]	< 10
O=C(O)c1ccc(N2CCCCOc3cc(C(=O)N4CCCCC4)ccc32)cc1 [Example 2-6]	< 10
Cc1cn2ccc(N3CCOc4cc(C(=O)N5CCCCC5)cnc43)cc2n1 [Example 1-26]	10 to 100
COc1cc(N2CCOc3cc(C(=O)N4CCC(F)(F)CC4)ccc32)ccc1C(=O)O [Example 2-13]	< 10
CNC(=O)c1ccc(N2CCCc3cc(C(=O)N4CCCCC4)cnc32)cc1C [Example 1-207]	10 to 100
CN1Cc2cc(N3CCOc4cc(C(=O)N5CCC[C@@H](CF)C5)cnc43)ccc2C1=O [Example 8-203]	< 10
CCOCCn1nc2cc(N3CCCc4cc(C(=O)N5CCC[C@H](CF)C5)cnc43)ccn2c1=O [Example 1-117]	< 10
Cn1nc2cc(N3CCOc4cc(C(=O)N5CCCC6(C5)CC(F)(F)C6)cnc43)ccn2c1=O [Example 8-95]	10 to 100
COC(=O)c1nc2ccc(N3CCOc4cc(C(=O)N5CCCCC5)cnc43)cc2s1 [Example 11-3]	< 10
NC(=O)c1ccc(N2CCOc3cc(C(=O)N4CCCCC4)cnc32)cn1 [Example 6-21]	< 10
Cn1nc2cc(N3CCCc4cc(C(=O)N5CCCCCCC5)cnc43)ccn2c1=O [Example 8-125]	< 10
Cn1nc2cc(N3CCOc4cc(C(=O)N5CCCCC5)cnc43)c(Cl)cn2c1=O [Example 1-270]	> 100
CCn1nc2cc(N3CCCc4cc(C(=O)N5CCCCCCC5)cnc43)ccn2c1=O [Example 8-150]	< 10

Structure (SMILES)	IC50 [nM]
CN1Cc2cc(N3CCOc4cc(C(=O)C5CCCCC5)cnc43)ccc2C1=O [Example 1-134]	< 10
Cn1cnc2cc(N3CCCc4cc(C(=O)N5CCCCC5)cnc43)cnc2c1=O [Example 1-190]	< 10
COc1cc2c(cc1C(=O)N1CCCCC1)OCCN2c1ccc(C(=O)O)cc1 [Example 2-1, 4-(6-Methoxy-7-(piperidine-1-carbonyl)-2,3-dihydro-4H-benzo[b] [1,4]oxazin-4-yl)benzoic Acid]	10 to 100
CCn1nc2cc(N3CCCc4cc(C(=O)N5CCC[C@H](C)C5)cnc43)ccn2c1=O [Example 8-160]	< 10
COCn1nc2cc(N3CCCc4cc(C(=O)N5CCC[C@@H](CF)C5)cnc43)ccn2c1=O [Example 1-121]	< 10
N#Cc1ccc(N2CCCc3cc(C(=O)N4CCCCC4)cnc32)cc1 [Example 1-209]	< 10
O=C(O)c1ccc(N2CCOc3cc(C(=O)N4CCCCC4)cnc32)cn1 [Example 2-38]	< 10
O=C(c1cnc2c(c1)OCCN2c1ccn2c(=O)n(Cc3ccnc(Cl)c3)nc2c1)N1CCC(F)(F)CC1 [Example 27-7]	< 10
Cn1nc2cc(N3CCOc4cc(C(=O)N5CCCCC5)sc43)ccn2c1=O [Example 8-222]	< 10
Cn1nc2cc(N3CCOc4cc(C(=O)N5CCc6ccccc65)cnc43)ccn2c1=O [Example 8-104]	10 to 100
CCOC(=O)c1ccc(N2CCOc3cc(C(=O)N4CCCCC4)cnc32)s1 [Example 1-264]	< 10
COc1cc(N2CCOc3cc(C(=O)N4CC=CCC4)ccc32)ccc1C(=O)O [Example 2-14]	< 10
Cn1nc2cc(N3CCOc4cc(C(=O)N5CCCC(C)(C)C5)cnc43)ccn2c1=O [Example 8-110]	< 10
COC(=O)c1cccc(N2CCc3cc(C(=O)N4CCCCC4)ccc32)c1 [Example 1-139]	< 10
O=C(c1cnc2c(c1)OCCN2c1ccn2c(=O)n(Cc3cccnc3)nc2c1)N1CCCCC1 [Example 1-32]	< 10
CCN1Cc2cc(N3CCCc4cc(C(=O)N5CCCC(F)(F)C5)cnc43)ccc2C1=O [Example 8-85]	< 10
Cn1nc2cc(N3CCOc4cc(C(=O)N5C[C@@H]6CC[C@@H](C6)C5)cnc43)ccn2c1=O [Example 8-39]	< 10
O=C1NCc2cc(N3CCOc4cc(C(=O)N5CCC(F)(F)CC5)cnc43)ccc21 [Example 14-6]	< 10
Cn1nc2cc(N3CCOc4cc(C(=O)N5CC=CCC5)cnc43)ccn2c1=O [Example 8-229]	< 10

Structure (SMILES)	IC50 [nM]
C[C@H]1CCCN(C(=O)c2cnc3c(c2)OCCN3c2ccn3c(=O)[nH]nc3c2)C1 [Example 1-42]	< 10
C[C@H]1CCCN(C(=O)c2cnc3c(c2)OCCCN3c2ccn3c(=O)n(C)nc3c2)C1 [Example 8-61]	< 10
CN1CCN(c2ccc(C(=O)O)cc2)c2ncc(C(=O)N3CCCCC3)cc21 [Example 4-21]	< 10
O=C(c1cnc2c(c1)OCCN2c1cccnc1)N1CCCCC1 [Example 1-234]	10 to 100
COCn1nc2cc(N3CCCc4cc(C(=O)N5CCC(F)(F)CC5)cnc43)ccn2c1=O [Example 1-76]	< 10
COC(=O)c1ccc(N2CCCc3cc(C(=O)N4CCCCC4)ccc32)cc1 [Example 1-131]	< 10
Cn1nc2cc(N3CCN(c4ccc(C#N)cc4)c4cc(C(=O)N5CCC(F)(F)CC5)cnc43)ccn2c1=O [Example 30-2]	10 to 100
CCn1nc2cc(N3CCCc4cc(C(=O)N5CCN(C)CC5)cnc43)ccn2c1=O [Example 8-152]	10 to 100
Cn1ccc2cc(N3CCCc4cc(C(=O)N5CCC(F)(F)CC5)cnc43)ccc2c1=O [Example 1-182]	< 10
CCOCCN1Cc2cc(N3CCCc4cc(C(=O)N5CCC(F)(F)CC5)cnc43)ncc2C1=O [Example 1-185]	10 to 100
Cn1ncc2cc(N3CCCc4cc(C(=O)N5CCCCC5)cnc43)ccc2c1=O [Example 1-188]	< 10
Cn1nc2cc(N3CCCc4cc(S(=O)(=O)C5CCCCC5)cnc43)ccn2c1=O [Example 7-8]	> 100
O=C(c1cnc2c(c1)CCCN2c1ccc2c(c1)CN(CC1COC1)C2=O)N1CCCCC1 [Example 1-65]	< 10
O=C(O)c1ccc(N2CCCOc3cc(C(=O)N4CCCCC4)cnc32)cc1 [Example 2-8]	< 10
O=C(c1cnc2c(c1)OCCN2c1ccc(F)cc1)N1CCCCC1 [Example 1-236]	> 100
CN1Cc2cc(N3CCOc4cc(C(=O)N5CCCC(C)(F)C5)cnc43)ccc2C1=O (centres unmarked) [Example 8-209]	< 10
COc1ccc(CN2Cc3cc(N4CCOc5cc(C(=O)N6CCC(F)(F)CC6)ccc54)ccc3C2=O)c(OC)c1 [Example 1-150]	< 10
O=C(O)c1ccc(N2CCSc3cc(C(=O)N4CCCCC4)ccc32)cc1 [Example 2-15]	< 10
